Source: patent publication US6943191B1, “Disubstituted lavendustin A analogs and pharmaceutical composition comprising the analogs” (The United States of America as represented by the …, priority 1998, dated 2005)

What was measured:
Type in all cases: in vivo, human
[1] = system: MDA-MB-435; assay: Hollow fiber assay in mice, MDA-MB-435; conditions: QD X 4, Day 4; for % T/C MDA-MB-435 IP: IP fibers; for % T/C MDA-MB-435 SC: SC fibers
Protocol: (§1) Compounds satisfying Formulas 1 and 2 also have been tested for in vivo activity in the hollow fiber assay. See Example 12 below for the procedure used for the in vivo tests. Each compound tested was tested against a minimum of 12 human cancer cell lines. Data is reported as % T/C (i.e., the […]) for each of the 2 compound doses against each of the cell lines with separate values calculated for the intraperitoneal and subcutaneous samples, with a target value for % T/C being about 50 or less.
(§2) Compounds were selected for further in vivo testing in standard subcutaneous xenograft models on the basis of several hollow fiber assay criteria. These criteria include: (1) a % T/C of 50 or less in 10 of the 48 possible test combinations (12 cell lines×2 sites×2 compound doses); (2) activity at a distance (intrapentoneal drug/subcutaneous culture) in a minimum of 4 of the 24 possible combinations; and/or (3) a net cell kill of 1 or more cell lines in either implant site. To simplify evaluation, a point system has been adopted which allows rapid assessment of a compound's activity. A value of 2 is assigned for each compound dose which results in a 50% or greater reduction in viable cell mass. The intraperitoneal and subcutaneous samples were scored separately so that criteria (1) and (2) could be evaluated. Compounds with a combined IP+SC score≧20, an SC score≧8, or a net cell kill of one or more cell lines were referred for xenograft testing. These criteria have been statistically validated by comparing the activity outcomes of greater than 80 randomly selected compounds in the hollow fiber assay and in the xenograft testing.
(§3) This example describes the method used for in vivo testing of mice. Human cancer cells were cultivated in polyvinylidene fluoride (PVDF) hollow fibers. A sample of each cancer cell line was implanted intraperitoneally and subcutaneously in mice. Each mouse received a total of 6 fibers, 3 intraperitoneally and 3 subcutaneously, representing 3 distinct cancer cell lines. Three mice were treated with compounds made according to the present invention at each of two test doses intraperitoneally using a QD×4 treatment schedule. […] Anticancer effects were assessed by determining viable cell mass for each of the coil line using a formazan dye (MTT) conversion assay. From this, the % TIC was calculated using the average optical density of the compound-treated samples divided by the average optical density of the vehicle controls. In addition, the net increase in cell mass was determined for each sample as samples of fiber cultures were assessed for viable cell mass on the day of implantation into mice. This allowed cytostatic and cytocidal capacities of these compounds to be assessed.

[2] = system: NCI-H23; assay: Hollow fiber assay in mice, NCI-H23; conditions: QD X 4, Day 4; for % T/C NCI-H23 IP: IP fibers; for % T/C NCI-H23 SC: SC fibers
Protocol: as §1, §2, §3

[3] = system: UACC-62; assay: Hollow fiber assay in mice, UACC-62; conditions: QD X 4, Day 4; for % T/C UACC-62 IP: IP fibers; for % T/C UACC-62 SC: SC fibers
Protocol: as §1, §2, §3

[4] = system: SW-620; assay: Hollow fiber assay in mice, SW-620; conditions: QD X 4, Day 4; for % T/C SW-620 IP: IP fibers; for % T/C SW-620 SC: SC fibers
Protocol: as §1, §2, §3

[5] = system: OVCAR-5; assay: Hollow fiber assay in mice, OVCAR-5; conditions: QD X 4, Day 4; for % T/C OVCAR-5 IP: IP fibers; for % T/C OVCAR-5 SC: SC fibers
Protocol: as §1, §2, §3

[6] = system: SF-295; assay: Hollow fiber assay in mice, SF-295; conditions: QD X 4, Day 4; for % T/C SF-295 IP: IP fibers; for % T/C SF-295 SC: SC fibers
Protocol: as §1, §2, §3

[7] = system: NCI-H522; assay: Hollow fiber assay in mice, NCI-H522; conditions: QD X 4, Day 4; for % T/C NCI-H522 IP: IP fibers; for % T/C NCI-H522 SC: SC fibers
Protocol: as §1, §2, §3

O=C(OC12CC3CC(CC(C3)C1)C2)c1ccc(NCc2cc(O)ccc2O)cc1 [Compound 6, 4′-adamantylbenzoate-1′-N-2,5-dihydroxybenzylamine]
% T/C MDA-MB-435 IP ([1]; 33.50 mg/kg/dose IP): >100% | % T/C MDA-MB-435 IP ([1]; 50.00 mg/kg/dose IP): 72% | % T/C MDA-MB-435 SC ([1]; 33.50 mg/kg/dose IP): 94% | % T/C MDA-MB-435 SC ([1]; 50.00 mg/kg/dose IP): 99% | % T/C NCI-H23 IP ([2]; 33.50 mg/kg/dose IP): 100% | % T/C NCI-H23 IP ([2]; 50.00 mg/kg/dose IP): >100% | % T/C NCI-H23 SC ([2]; 33.50 mg/kg/dose IP): >100% | % T/C NCI-H23 SC ([2]; 50.00 mg/kg/dose IP): >100% | % T/C UACC-62 IP ([3]; 33.50 mg/kg/dose IP): >100% | % T/C UACC-62 IP ([3]; 50.00 mg/kg/dose IP): >100% | % T/C UACC-62 SC ([3]; 33.50 mg/kg/dose IP): 99% | % T/C UACC-62 SC ([3]; 50.00 mg/kg/dose IP): 99% | % T/C SW-620 IP ([4]; 33.50 mg/kg/dose IP): >100% | % T/C SW-620 IP ([4]; 50.00 mg/kg/dose IP): >100% | % T/C SW-620 SC ([4]; 33.50 mg/kg/dose IP): 94% | % T/C SW-620 SC ([4]; 50.00 mg/kg/dose IP): 80% | % T/C OVCAR-5 IP ([5]; 33.50 mg/kg/dose IP): >100% | % T/C OVCAR-5 IP ([5]; 50.00 mg/kg/dose IP): 46% | % T/C OVCAR-5 SC ([5]; 33.50 mg/kg/dose IP): 87% | % T/C OVCAR-5 SC ([5]; 50.00 mg/kg/dose IP): 75% | % T/C SF-295 IP ([6]; 33.50 mg/kg/dose IP): >100% | % T/C SF-295 IP ([6]; 50.00 mg/kg/dose IP): 88% | % T/C SF-295 SC ([6]; 33.50 mg/kg/dose IP): >100% | % T/C SF-295 SC ([6]; 50.00 mg/kg/dose IP): 88% | % T/C NCI-H522 IP ([7]; 33.50 mg/kg/dose IP): 94% | % T/C NCI-H522 IP ([7]; 50.00 mg/kg/dose IP): 48% | % T/C NCI-H522 SC ([7]; 33.50 mg/kg/dose IP): 89% | % T/C NCI-H522 SC ([7]; 50.00 mg/kg/dose IP): 89%
